# Measurements from ChEMBL document CHEMBL1212711, “Mechanistic and functional insights into fatty acid activation in Mycobacterium tuberculosis” (Nat Chem Biol, 2009).
# Calls of active or inactive are those of the source. The calls are words filed in the database; no cut-off is given here.
# Legend:
# [1] = tested on: Mycobacterium tuberculosis H37Rv; assay: Activity at Mycobacterium tuberculosis H37Rv FACL19 AS mutant containing 15 amino acid stretch of alanine and serine residues assessed as acy-CoA formation by radio-TLC assay
# [2] = tested on: Mycobacterium tuberculosis H37Rv; assay: Selectivity of Mycobacterium tuberculosis H37Rv FAAL28 deletion mutant over wild type FACL1
# [3] = tested on: Mycobacterium tuberculosis H37Rv; assay: Activity at Mycobacterium tuberculosis H37Rv FAAL28 deletion mutant assessed as conversion of lauroyl-AMP to lauryl-CoA by radio-TLC assay
# [4] = tested on: Mycobacterium tuberculosis H37Rv; assay: Activity at Mycobacterium tuberculosis H37Rv FACL19 i mutant containing FAAL28 (342-372) residues instead of FACL6 (362-376) residues assessed as acy-CoA formation by radio-TLC assay
compound,measurement,setting,value
CC(C)(COP(=O)(O)OP(=O)(O)OC[C@H]1O[C@@H](n2cnc3c(N)ncnc32)[C@H](O)[C@@H]1OP(=O)(O)O)[C@@H](O)C(=O)NCCC(=O)NCCS [COENZYME_A],Activity,[1],inactive
same,fold change (FC),[2],10
same,kcat,[3],19500 s⁻¹
same,Activity,[4],inactive
